Source: patent US11286258B2, “Nature-inspired anticancer and antibacterial motifs and pharmaceutical composition thereof” (University of Sharjah, priority 2020, dated 2022)
Converted amounts (≈) assume the structure as drawn. Like-named read-outs stand apart in the source and are kept apart here. Marks after values point to notes of the source that are not given here.

Legend:
[1] = system: E. coli ATCC BAA2469 (NDM-1 carbapenem-resistant); test: MIC broth microdilution, E. coli ATCC BAA2469; type: cell-based, Escherichia coli; details: overnight incubation; for MIC: Escherichia coli, ATCCBAA2469, MDR
Procedure: (§1) Antibacterial activity: The compounds were tested for the minimum inhibitory concentrations (MIC), which is the lowest concentration of a chemical required to inhibit visible microbial growth following overnight incubation. MIC values were determined using broth microdilution method according to the Clinical and Laboratory Standards Institute guidelines (CLSI, 2015, M07-A10). Mueller-Hinton broth was used as a culture medium in all the experiments. Exponentially growing bacterial cells were prepared in Mueller-Hinton broth at a concentration of approximately 5×10^5 CFU/mL. Two-fold serial dilutions of the test compound (8 concentrations ranged between 100-0.78 μg/mL) were tested. […] In each experiment, solvent (DMSO) was used as a negative control, un-treated control (composing of bacteria in Mueller-Hinton broth) was used as a growth control, blank (culture media alone) was used as sterility control. The 96-well microplate with the test compounds was incubated overnight at 37° C. Turbidity in wells indicated bacterial growth.
(§2) The compounds were tested on six MDR Gram-positive bacteria including three clinical isolates of methicillin-resistant Staphylococcus aureus (MRSA-1, MRSA-2 and MRSA-3) and three reference MRSA strains (ATCC33591, ATCC33592 and ATCC700699). They were also tested on three MDR Gram-negative bacteria including New Delhi metallo-beta-lactamase (NDM-1) positive, carbapenem-resistant E. coli (ATCC BAA2469), extended-spectrum beta-lactamase (ESBL) producing, colistin-resistant E. coli (CDC-AR-0346) and carbapenem-resistant Acinetobacter baumannii (ATCC BAA1605), in addition to two non-MDR bacteria from the same species, namely E. coli (ATCC 25922) Acinetobacter baumannii (ATCC 19606).

[2] = system: MRSA-ATCC33591; test: MIC broth microdilution, MRSA ATCC33591; type: cell-based, Staphylococcus aureus; details: Staphylococcus aureus, read-out: MIC MRSA-ATCC33591
Procedure: as §1, §2

[3] = system: MRSA-1 (clinical isolate); test: MIC broth microdilution, MRSA-1; type: cell-based, Staphylococcus aureus; details: Staphylococcus aureus, MRSA, read-out: MIC MRSA-1 (clinical isolate)
Procedure: as §1, §2

[4] = system: MRSA-ATCC33592; test: MIC broth microdilution, MRSA ATCC33592; type: cell-based, Staphylococcus aureus; details: Staphylococcus aureus, read-out: MIC MRSA-ATCC33592
Procedure: as §1, §2

[5] = system: MRSA-2 (clinical isolate); test: MIC broth microdilution, MRSA-2; type: cell-based, Staphylococcus aureus; details: Staphylococcus aureus, MRSA, read-out: MIC MRSA-2 (clinical isolate)
Procedure: as §1, §2

[6] = system: HEP3B; test: MTT cell viability, HEP3B; type: cell-based; details: Homo sapiens, liver cancer, 48 h of drug treatment, average of three experiments
Description: (§3) Cell culture: In this study five different cancer cell lines were used, human lung carcinoma (A549), human breast adenoma (MCF-7), Cervical carcinoma (Hela), hepatocellular carcinoma (Hep3B), and colorectal adenocarcinoma (HCT-116). These cells were obtained from the European Collection of Cell Cultures (ECACC, UK). Hep3B cells were maintained in Dulbecco's Modified Eagle Medium (DMEM: Sigma-Aldrich), and the four other cell lines were maintained in Roswell Park Memorial Institute medium (RPMI, Sigma-Aldrich, St. Louis, Mo., USA), which was supplemented with 10% fetal bovine serum (FBS, Sigma-Aldrich) and 1% penicillin/streptomycin (Sigma-Aldrich). Cells were incubated all the time at 37° C. in a humidified atmosphere of 5% CO2. Cell viability studies: Cell viability was assessed using the MTT assay as described before. In brief, all cancer cell lines were seeded at a density of 4×10^4/well in 96 well flat-bottom plates. After 24 h from seeding, cells were treated with the synthesized compounds and left for an incubation period of 48 h. Upon reaching the indicated time point, the media was removed and replaced with 200 μL fresh media containing 0.5 mg/mL of MTT tetrazolium dye (Sigma-Aldrich). Cells were then incubated with MTT solution for 2 h at 37° C. The resultant formazan crystals were dissolved in 200 μl/well of DMSO and absorbance was measured at 570 nm using a microplate reader (Thermo Scientific).

[7] = system: E. coli ATCC25922; test: MIC broth microdilution, E. coli ATCC25922; type: cell-based, Escherichia coli; details: Escherichia coli, ATCC25922; not MDR; overnight incubation
Procedure: as §1, §2

[8] = system: HCT-116; test: MTT cell viability, HCT-116; type: cell-based; details: Homo sapiens, colon cancer, 48 h of drug treatment, average of three experiments
Description: as §3

[9] = system: E. coli CDC-AR-0346 (ESBL, colistin resistant); test: MIC broth microdilution, E. coli CDC-AR-0346; type: cell-based, Escherichia coli; details: Escherichia coli; MDR; overnight incubation
Procedure: as §1, §2

[10] = system: Acinetobacter baumannii ATCC BAA1605 (carbapenem-resistant); test: MIC broth microdilution, A. baumannii ATCC BAA1605; type: cell-based; details: overnight incubation; for MIC: Acinetobacter baumannii, ATCCBAA1605, MDR; for MIC Acinetobacter baumannii ATCC BAA1605 (carbapenem-resistant): MDR
Procedure: as §1, §2

[11] = system: Acinetobacter baumannii ATCC 19606; test: MIC broth microdilution, A. baumannii ATCC 19606; type: cell-based; details: Acinetobacter baumannii, ATCC19606; not MDR; overnight incubation
Procedure: as §1, §2

[12] = system: MRSA-ATCC700699 (VISA); test: MIC broth microdilution, MRSA ATCC700699 (VISA); type: cell-based, Staphylococcus aureus; details: for MIC: Staphylococcus aureus, read-out: MIC MRSA-ATCC700699 (VISA)
Procedure: as §1, §2

[13] = system: MRSA-3 (clinical isolate); test: MIC broth microdilution, MRSA-3; type: cell-based, Staphylococcus aureus; details: Staphylococcus aureus, MRSA, read-out: MIC MRSA-3 (clinical isolate)
Procedure: as §1, §2

[14] = system: HELA; test: MTT cell viability, HELA; type: cell-based; details: Homo sapiens, cervical cancer, 48 h of drug treatment, average of three experiments
Description: as §3

[15] = system: normal epithelial cells (HMEC); test: Cell viability, normal epithelial cells; type: cell-based; details: Homo sapiens, 48 h of drug treatment, average of three experiments
Procedure: Cell viability studies: Cell viability was assessed using the MTT assay as described before. In brief, all cancer cell lines were seeded at a density of 4×10^4/well in 96 well flat-bottom plates. After 24 h from seeding, cells were treated with the synthesized compounds and left for an incubation period of 48 h. Upon reaching the indicated time point, the media was removed and replaced with 200 μL fresh media containing 0.5 mg/mL of MTT tetrazolium dye (Sigma-Aldrich). Cells were then incubated with MTT solution for 2 h at 37° C. The resultant formazan crystals were dissolved in 200 μl/well of DMSO and absorbance was measured at 570 nm using a microplate reader (Thermo Scientific).

[16] = system: MCF-7; test: MTT cell viability, MCF-7; type: cell-based; details: Homo sapiens, MCF7; breast cancer; 48 h of drug treatment; average of three experiments
Description: as §3

[17] = system: A549; test: MTT cell viability, A549; type: cell-based; details: Homo sapiens, lung cancer, 48 h of drug treatment, average of three experiments
Description: as §3

[18] = overnight incubation, Mueller-Hinton broth
[19] = strain intermediately resistant to vancomycin, overnight incubation

Row | MIC [1] [µg/mL] | IC50 [6] [µM] | MIC [7] [µg/mL] | IC50 [8] [µM] | MIC [9] [µg/mL] | MIC [10] [µg/mL] | MIC [11] [µg/mL] | IC50 [14] [µM] | IC50 [16] [µM] | IC50 [17] [µM] | MIC Acinetobacter baumannii ATCC BAA1605 (carbapenem-resistant) [10] [µg/mL] | Structure (SMILES) | other results
1 | 6.25 to 12.5 (≈ 13.4 to 26.8 µM) | 5.132 ± 0.04 | 12.5 (≈ 26.8 µM) | 5.177 ± 0.02 | 25 (≈ 53.6 µM) | 12.5 (≈ 26.8 µM) | 6.25 (≈ 13.4 µM) | 4.08 ± 0.12 | 5.61 ± 0.08 | 8.607 ± 0.02 |  | Oc1ccc2c(c1)c1c3n2[C@@]2(C=C/C(=N\Nc4ccc(C(F)(F)F)cc4)CC2)CC[C@@H]3NCC1 [Compound 1i] | MIC E. coli ATCC BAA2469 (NDM-1 carbapenem-resistant) ([1]; MDR): 12.5 µg/mL (≈ 26.8 µM); MIC [2, 18]: 3.12 µg/mL (≈ 6.7 µM); MIC [3, 18]: 1.56 µg/mL (≈ 3.34 µM); MIC [4, 18]: 3.12 µg/mL (≈ 6.7 µM); MIC [5, 18]: 3.12 µg/mL (≈ 6.7 µM); MIC [12, 19]: 1.56 µg/mL (≈ 3.34 µM); MIC [13, 18]: 3.12 µg/mL (≈ 6.7 µM); IC50 [15]: 12.7 ± 0.05 µM
2 | 25 (≈ 65.2 µM) |  | < 0.02 |  | < 0.2 | 12.5 (≈ 32.6 µM) | 0.6 (≈ 1.56 µM) |  |  |  |  | C[C@@H](O)[C@H]1C(=O)N2C(C(=O)O)=C(S[C@@H]3CN[C@H](C(=O)N(C)C)C3)[C@H](C)[C@H]12 [Meropenem] | 
3 |  | 8 ± 0.07 |  | 6.43 ± 0.03 |  |  |  | > 10 | 6.22 ± 0.16 | 10.25 ± 0.08 |  | Fc1ccc(N/N=C2\C=C[C@@]3(CC2)CC[C@@H]2NCCc4c2n3c2ccccc42)cc1 [Compound 1b] | 
4 |  |  |  |  |  |  |  |  |  |  |  | CN[C@H](CC(C)C)C(=O)N[C@H]1C(=O)N[C@@H](CC(N)=O)C(=O)N[C@H]2C(=O)N[C@H]3C(=O)N[C@H](C(=O)N[C@H](C(=O)O)c4cc(O)cc(O)c4-c4cc3ccc4O)[C@H](O)c3ccc(c(Cl)c3)Oc3cc2cc(c3O[C@@H]2O[C@H](CO)[C@@H](O)[C@H](O)[C@H]2O[C@H]2C[C@](C)(N)[C@H](O)[C@H](C)O2)Oc2ccc(cc2Cl)[C@H]1O [Vancomycin, reference compound] | MIC [2]: 1 µg/mL (≈ 0.69 µM); MIC [3]: 1 µg/mL (≈ 0.69 µM); MIC [4]: 1 µg/mL (≈ 0.69 µM); MIC [5]: 1 µg/mL (≈ 0.69 µM); MIC [12]: 8 µg/mL (≈ 5.52 µM); MIC MRSA-ATCC700699 (VISA) [12, 19]: 8 * μg/mL; MIC [13]: 1 µg/mL (≈ 0.69 µM)
5 | 250 (≈ 549 µM) |  | 0.03 (≈ 0.0659 µM) |  | > 1000 | ≥ 1000 | 20 (≈ 43.9 µM) |  |  |  | 1000 (≈ 2200 µM) | CO/N=C(\C(=O)N[C@@H]1C(=O)N2C(C(=O)O)=C(COC(C)=O)CS[C@H]12)c1csc(N)n1 [Cefotaxime] | 
6 | 500 (≈ 902 µM) |  | 0.03 (≈ 0.0541 µM) |  | > 1000 | ≥ 1000 | 20 (≈ 36.1 µM) |  |  |  | >1000 | CO/N=C(\C(=O)N[C@@H]1C(=O)N2C(C(=O)O)=C(CSc3nc(=O)c(=O)[nH]n3C)CS[C@H]12)c1csc(N)n1 [Ceftriaxone] | 
